The values that follow come from patent publication US7655690B2, “1-sulfonylindole derivatives, their preparation and their use as 5-HT6 ligands” (Laboratorios del Dr. Esteve S.A., priority 2004, dated 2010).

Counter-ions that a name gives are not always drawn.

A word on the melting point: it is the temperature of the solid-liquid transition. Consider `O=S(=O)(C1CCCCC1)n1cc(C2=CCN3CCCC3C2)c2cc(F)ccc21` (stereo not shown) (as salt: hydrochloride) [Example 4, 1-Cyclohexanesulfonyl-5-fluoro-3-(1,2,3,5,8,8a-hexahydro-indolizine-7-yl)-1H-indole hydrochloride], for which the melting point amounted to 263 °C.
Regarding `CN1CC=C(c2cn(S(=O)(=O)C3CCCCC3)c3ccc([N+](=O)[O-])cc23)CC1` [Example 1, 1-Cyclohexanesulfonyl-3-(1-methyl-1,2,3,6-tetrahydropyridine-4-yl)-5-nitro-1H-indole], the melting point lay within 155 to 160 °C.
Take `CN1CC=C(c2cn(S(=O)(=O)C3CCCCC3)c3ccc(N)cc23)CC1` [Example 3, 5-Amino-1-cyclohexanesulfonyl-3-(1-methyl-1,2,3,6-tetrahydropyridine-4-yl)-1H-indole]: the melting point was determined as 75 °C.
In turn, `CN1CC=C(c2cn(S(=O)(=O)C3CCCCC3)c3ccc(Cl)cc23)CC1` [Example 2, 5-Chloro-1-cyclohexanesulfonyl-3-(1-methyl-1,2,3,6-tetrahydropyridine-4-yl)-1H-indole] came in with a melting point of 88 to 90 °C.
